SMILES strings stand for the structures.

The test relates to LL/2 lung cancer tumor endothelial cells. Kind of test: Lung LL2 ex vivo model of tumor angiogenesis. The note with it: for 48 hrs (morphology observations) / Cell death: 40 μm; for 48 hrs (morphology observations): LL/2 tumor endothelial cells; for cytotoxicity at 40 µM: Mus musculus, Endothelial cell, 48 h, read-out: Cell death; for Cell death: drug treatment for two days, ratio of red area to total endothelial cell area. Type of test: cell-based, mouse. How it is done: An ex vivo tumor angiogenesis model was developed to test the efficacy of anti-cancer candidate agents. The following protocol describes the Ex Vivo Tumor Angiogenesis Model.
• 1. The day before the experiment, all necessary tools were sprayed with 70% ethanol and sterilized under UV light overnight, including blade, dissecting and micro-dissecting scissors and […]. 24-well dishes were placed at 4° C. to pre-chill plates and Matrigel was thawed, 24 hours before tumor dissection. • 2. 70% ethanol was sprayed on working bench. Two sterile petri dishes were prepared with 10 ml sterile PBS. The following steps 3 and 4 are necessary for mouse tumor models. For fresh human tumor, steps 3 and 4 are skipped. • 3. The tumor-bearing mice were euthanized. 70% ethanol was sprayed on the mouse and the tumor was removed using sterilized dissecting tools (avoid the fur). The tumor was rinsed in petri dish with sterile PBS to remove ethanol and fur. The tumor was transferred to a new petri dish with PBS for dissection. The dish is placed on ice. • 4. Pre-chilled sterile pipet tips were used to seed regular Matrigel in 24 well plates on ice. Matrigel (30 μl) was dropped in the middle of each well without touching the edge of the well (avoid introducing bubbles if possible). • 5. The tumor was cut in halves using the sterile blade. Healthy tumor tissue that is not necrotic and is within the tumor capsule was identified and isolated. The healthy tumor tissue was cut into small pieces. For instance, a suitable size for the tumor tissue is 0.5 mm (H)×0.5 mm (L)×0.3 mm (D) with a total volume of 0.075 mm^3. • 6. Each tumor piece was gently transferred and embedded in the Matrigel drop in the 24-well plate. The embedded piece was placed in the bottom and middle of each Matrigel drop. The plate was kept on ice all the time. • 7. After seeding the tumor pieces, plates were incubated in a 37° C. cell culture incubator without medium for 10 minutes in order for the Matrigel to solidify. • 8. Endothelial Growth Medium (0.5 ml) was added to each well and incubated at 37° C. with 5% CO2. Treatment was not added until the new endothelial cells was grown out of the tumor or were larger than 3 mm in diameter. This usually takes 4 days for the LL2 Lewis lung cancer model and 7 days for the CT26 colon cancer model. For human tumor models, the growth time is typically 2-3 weeks, depending on the tumor type. Media was changed every 4 days during prolonged culture. Typically, when the tumor tissue grows to 2 mm in diameter, it was good for drug testing. A size of about 3 mm in diameter can make visualization easier. • 9. When the assay was ready to be analyzed for cell death (e.g., 48 hours after drug addition), the dye mixture was prepared by mixing 6 μl of green dye to stain live cells (5 mg/ml Fluorescein diacetate or FDA in DMSO) with 30 μl of red dye (2.5 mg/ml Propidium iodide or PI in PBS) to stain dead cells in an Eppendorf tube. The FDA dye needs to be stored frozen in a −20° C. freezer because it has a labile ester bond. • 10. 1 μl of the dye mixture was added to each well of the 24-well dish. It is usually preferred to do one 24-well dish at a time given the amount of time needed to take pictures (the green dye is not as stable in the cells in the long term). • 11. The dish was gently rocked a few times to mix the dye with the media in the wells and incubate the dish at 37° C. for 10 min (too long incubation can make the green signal too intense). • 12. Each well was washed with 0.5 ml of sterile PBS and then 0.5 ml of phenol red free SFM was added to each well. Alternatively 0.5 ml of regular Endothelial Cell Growth Media can be added to each well if this well needs to be continuously maintained after the experiment. • 13. An inverted microscope using the 2× objective lens was used to observe morphological changes in the experimental wells. • 14. […]

On to `CCCCOc1ccc(S(=O)(=O)c2cnc3ccc(C(=O)OCC)cc3c2N2CCN(c3ccc(F)cc3)CC2)cc1` [Compound 213], for which the “48 hrs (morphology observations)” value came to 0 and the cytotoxicity at 40 µM was found to be 30%.

`CCCCOc1ccc(S(=O)(=O)c2cnc3ccc(C(=O)OCC)cc3c2N2CCC(N3CCSCC3)CC2)cc1` [Compound 217]: the “48 hrs (morphology observations)” value is recorded as 0 and the Cell death is 30%.

In the case of `CCCCCCCOc1ccc(S(=O)(=O)c2cnc3ccc(SC)cc3c2N2CCC(N3CCC(O)CC3)CC2)cc1` [Compound 223], the “48 hrs (morphology observations)” value was “*** (more than 50% but less than 100% of endothelial cells vesicularize in cell shape)” and the cytotoxicity at 40 µM is 30%.

`CCOC(=O)c1ccc2ncc(S(=O)(=O)c3ccc(OC)cc3)c(NN3CCN(C)CC3)c2c1` [Compound 225]: the “48 hrs (morphology observations)” value was found to be 0 and the Cell death came out at 40%.

With `COc1ccc(S(=O)(=O)c2cnc3ccc(SC)cc3c2NN2CCN(C)CC2)cc1` [Compound 226], the “48 hrs (morphology observations)” value was “* (50% or less of cells vesicularize in cell shape)” and the Cell death is listed as 10%.

With `COc1ccc(S(=O)(=O)c2cnc3ccc([S+](C)[O-])cc3c2NN2CCN(C)CC2)cc1` (stereo not shown) [Compound 227], the “48 hrs (morphology observations)” value is 0 and the Cell death is 10%.

On to `COc1ccc(S(=O)(=O)c2cnc3ccc(S(C)(=O)=O)cc3c2NN2CCN(C)CC2)cc1` [Compound 228], for which the “48 hrs (morphology observations)” value stood at 0 and the Cell death worked out at 5%.

As to `CCCCOc1ccc(S(=O)(=O)c2cnc3ccc(SC)cc3c2N2CCC(N3CCOCC3)CC2)cc1` [Compound 229], the “48 hrs (morphology observations)” value stood at 0 and the Cell death is 30%.

Take `CCCCOc1ccc(S(=O)(=O)c2cnc3ccc(SC)cc3c2N2CCC(N3CCN(CCO)CC3)CC2)cc1` [Compound 230]: the “48 hrs (morphology observations)” value was “*** (more than 50% but less than 100% of endothelial cells vesicularize in cell shape)” and the cytotoxicity at 40 µM was found to be 100%.

Take `CCCCOc1ccc(S(=O)(=O)c2cnc3ccc(SC)cc3c2N2CCC(N3CCC(N4CCCCC4)CC3)CC2)cc1` [Compound 231]: the “48 hrs (morphology observations)” value is “*** (more than 50% but less than 100% of endothelial cells vesicularize in cell shape)” and the Cell death amounted to 100%.

For the compound `CCCCOc1ccc(S(=O)(=O)c2cnc3ccc(SC)cc3c2N2CCC(N3CCC(O)(c4ccccc4)CC3)CC2)cc1` [Compound 232], the “48 hrs (morphology observations)” value was 0 and the Cell death worked out at 10%.

On to `CCCCOc1ccc(S(=O)(=O)c2cnc3ccc(SC)cc3c2N2CCC(N3CCN(c4ccc(F)cc4)CC3)CC2)cc1` [Compound 233], for which the “48 hrs (morphology observations)” value was found to be 0 and the Cell death is 5%.

For the compound `CCCCOc1ccc(S(=O)(=O)c2cnc3ccc(SC)cc3c2N2CCC(N3CCCN(C)CC3)CC2)cc1` [Compound 234], the “48 hrs (morphology observations)” value is on record as “*** (more than 50% but less than 100% of endothelial cells vesicularize in cell shape)” and the Cell death is 100%.

Regarding `CCCCOc1ccc(S(=O)(=O)c2cnc3ccc([S+](C)[O-])cc3c2N2CCC(N3CCOCC3)CC2)cc1` (stereo not shown) [Compound 235], the “48 hrs (morphology observations)” value turned out to be 0 and the Cell death is 10%.

In the case of `CCCCOc1ccc(S(=O)(=O)c2cnc3ccc([S+](C)[O-])cc3c2N2CCC(N3CCN(CCO)CC3)CC2)cc1` (stereo not shown) [Compound 236], the “48 hrs (morphology observations)” value is listed as 0 and the Cell death was 5%.

As for `CCCCOc1ccc(S(=O)(=O)c2cnc3ccc([S+](C)[O-])cc3c2N2CCC(N3CCC(N4CCCCC4)CC3)CC2)cc1` (stereo not shown) [Compound 237], the “48 hrs (morphology observations)” value is listed as “*** (more than 50% but less than 100% of endothelial cells vesicularize in cell shape)” and the Cell death stood at 100%.

With `CCCCOc1ccc(S(=O)(=O)c2cnc3ccc([S+](C)[O-])cc3c2N2CCC(N3CCN(c4ccc(F)cc4)CC3)CC2)cc1` (stereo not shown) [Compound 239], the “48 hrs (morphology observations)” value stood at 0 and the Cell death was determined as 40%.

The values above are taken from patent publication US20250230226A1, “PLXDC1/PLXDC2 ACTIVATORS AND THEIR USE IN THE TREATMENT OF BLOOD VESSEL DISORDERS” (THE REGENTS OF THE UNIVERSITY OF CALIFORNIA, priority 2019, published 2025).
